Results reported in patent publication US9181269B2, “Enantiomers of fluconazole analogues containing thieno-[2,-3-D]pyrimidin-4(3H)-one moiety as antifungal agents” (FDC Limited, priority 2011, dated 2015).
Converted amounts (≈) assume the structure as drawn.

Experiments:
C. Krusei ATCC 6258 = assay: MIC by broth dilution, CK01; format: cell-based; details: RPMI 1640 pH 7.0, 48 hours; for MIC50: Pichia kudriavzevii, ATCC6258, concentration exhibiting more than 50% inhibition vs positive control, read-out: MIC50 obtained by broth dilution method, MIC
Protocol: (§1) The compounds of Formula (1a) and (1b) were tested for antifungal activity against various strains of Candida(CA 01: Candida albicans ATCC 24433, CA 02: C. albicans ATCC 10231, CA 03: C. albicans ATCC 2091, CA 04: C. albicans ATCC 90028, CG 01: C. glabrata ATCC 90030, CK 01: C. Krusei ATCC 6258, CT 01: C. tropicalis ATCC 750). In vitro evaluation of antifungal activity was performed by determining the minimum inhibitory concentration (MIC) following standard broth dilution methods (CLSI: Reference method for broth dilution antifungal susceptibility testing of yeasts; Approved standard, second edition M27-A2, 2002; CLSI: Reference method for broth dilution antifungal susceptibility testing of filamentous fungi; […]. Known anti-fungal agents like Fluconazole and Amphotericin-B were used as standards. End points were determined after 48 hours visually and by using spectrophotometer wherever necessary. The activity parameters are enumerated in Table 10: […]

C. albicans ATCC 90028 = assay: MIC by broth dilution, CA04; format: cell-based, Candida albicans; details: RPMI 1640 pH 7.0, 48 hours; for MIC50: Candida albicans, ATCC90028, concentration exhibiting more than 50% inhibition vs positive control, read-out: MIC50 obtained by broth dilution method, MIC
Protocol: as §1

C. glabrata ATCC 90030 = assay: MIC by broth dilution, CG01; format: cell-based; details: RPMI 1640 pH 7.0, 48 hours; for MIC50: Nakaseomyces glabratus, ATCC90030, concentration exhibiting more than 50% inhibition vs positive control, read-out: MIC50 obtained by broth dilution method, MIC
Protocol: as §1

C. tropicalis ATCC 750 = assay: MIC by broth dilution, CT01; format: cell-based; details: RPMI 1640 pH 7.0, 48 hours; for MIC50: Candida tropicalis, ATCC750, concentration exhibiting more than 50% inhibition vs positive control, read-out: MIC50 obtained by broth dilution method, MIC
Protocol: as §1

C. albicans ATCC 10231 = assay: MIC by broth dilution, CA02; format: cell-based, Candida albicans; details: RPMI 1640 pH 7.0, 48 hours; for MIC50: Candida albicans, ATCC10231, concentration exhibiting more than 50% inhibition vs positive control, read-out: MIC50 obtained by broth dilution method, MIC
Protocol: as §1

[1] = tested on: Candida albicans ATCC 24433; assay: MIC by broth dilution, CA01; format: cell-based; details: RPMI 1640 pH 7.0, 48 hours; for MIC50: Candida albicans, ATCC24433, concentration exhibiting more than 50% inhibition vs positive control, read-out: MIC50 obtained by broth dilution method, MIC
Protocol: as §1

C. albicans ATCC 2091 = assay: MIC by broth dilution, CA03; format: cell-based, Candida albicans; details: RPMI 1640 pH 7.0, 48 hours; for MIC50: Candida albicans, ATCC2091, concentration exhibiting more than 50% inhibition vs positive control, read-out: MIC50 obtained by broth dilution method, MIC
Protocol: as §1

[2] = concentration exhibiting complete inhibition

SMILES | MIC in μg/ml (Amphotericin B) (C. Krusei ATCC 6258; [2]) | MIC in μg/ml (Amphotericin B) (C. albicans ATCC 90028; [2]) | MIC in μg/ml (Amphotericin B) (C. glabrata ATCC 90030; [2]) | MIC in μg/ml (Amphotericin B) (C. tropicalis ATCC 750; [2]) | MIC in μg/ml (Amphotericin B) (C. albicans ATCC 10231; [2]) | MIC in μg/ml (Amphotericin B) [1, 2] | MIC in μg/ml (Amphotericin B) (C. albicans ATCC 2091; [2]) | MIC50 (C. Krusei ATCC 6258) | MIC50 (C. albicans ATCC 90028) | MIC50 (C. glabrata ATCC 90030) | MIC50 (C. tropicalis ATCC 750) | MIC50 (C. albicans ATCC 10231) | MIC50 [1] | MIC50 (C. albicans ATCC 2091)
C[C@@H]1[C@H](O)[C@@H](C)/C=C/C=C/C=C/C=C/C=C/C=C/C=C/[C@H](O[C@@H]2O[C@H](C)[C@@H](O)[C@H](N)[C@@H]2O)C[C@@H]2O[C@](O)(C[C@@H](O)C[C@@H](O)[C@H](O)CC[C@@H](O)C[C@@H](O)CC(=O)O[C@H]1C)C[C@H](O)[C@H]2C(=O)O [AMB, Amphotericin-B, reference compound] | 0.5 µg/mL (≈ 0.541 µM) | 0.5 µg/mL (≈ 0.541 µM) | 0.25 µg/mL (≈ 0.271 µM) | 0.5 µg/mL (≈ 0.541 µM) | 0.5 µg/mL (≈ 0.541 µM) | 0.25 µg/mL (≈ 0.271 µM) | 0.5 µg/mL (≈ 0.541 µM) | – | – | – | – | – | – | –
OC(Cn1cncn1)(Cn1cncn1)c1ccc(F)cc1F [FLU, Fluconazole] | – | – | – | – | – | – | – | 64 µg/mL (≈ 209 µM) | 0.5 µg/mL (≈ 1.63 µM) | 4 µg/mL (≈ 13.1 µM) | 2 µg/mL (≈ 6.53 µM) | 1 µg/mL (≈ 3.27 µM) | 1 µg/mL (≈ 3.27 µM) | 0.5 µg/mL (≈ 1.63 µM)
CCCCCc1cc2c(=O)n(C[C@@](O)(Cn3cncn3)c3ccc(F)cc3F)cnc2s1 [Formula 1a-02, (R)-3-[2-(2,4-difluorophenyl)-2-hydroxy-3-(1H-1,2,4-triazol-1-yl)propyl]-6-n-pentylthieno[2,3-d]pyrimidin-4(3H)-one] | – | – | – | – | – | – | – | > 16 µg/mL | 4 µg/mL | 4 µg/mL | 16 µg/mL | 8 µg/mL | 4 µg/mL | 8 µg/mL
CCCc1cc2c(=O)n(C[C@](O)(Cn3cncn3)c3ccc(F)cc3F)cnc2s1 [Formula 1b-04, (S)-3-[2-(2,4-Difluorophenyl)-2-hydroxy-3-[1,2,4]triazol-1-yl-propyl]-6-(n-propyl)-thieno[2,3-d]pyrimidin-4(3H)-one] | – | – | – | – | – | – | – | 1 µg/mL | 0.03 µg/mL | 0.03 µg/mL | 0.06 µg/mL | 0.06 µg/mL | 0.03 µg/mL | 0.03 µg/mL

Continued, values first:

MIC in μg/ml (Amphotericin B) (C. Krusei ATCC 6258; [2]) | MIC in μg/ml (Amphotericin B) (C. albicans ATCC 90028; [2]) | MIC in μg/ml (Amphotericin B) (C. glabrata ATCC 90030; [2]) | MIC in μg/ml (Amphotericin B) (C. tropicalis ATCC 750; [2]) | MIC in μg/ml (Amphotericin B) (C. albicans ATCC 10231; [2]) | MIC in μg/ml (Amphotericin B) [1, 2] | MIC in μg/ml (Amphotericin B) (C. albicans ATCC 2091; [2]) | MIC50 (C. Krusei ATCC 6258) | MIC50 (C. albicans ATCC 90028) | MIC50 (C. glabrata ATCC 90030) | MIC50 (C. tropicalis ATCC 750) | MIC50 (C. albicans ATCC 10231) | MIC50 [1] | MIC50 (C. albicans ATCC 2091) | SMILES
– | – | – | – | – | – | – | 1 µg/mL | 0.12 µg/mL | 0.12 µg/mL | 0.25 µg/mL | 0.12 µg/mL | 0.06 µg/mL | 0.25 µg/mL | CCCCCCc1cc2c(=O)n(C[C@](O)(Cn3cncn3)c3ccc(F)cc3F)cnc2s1 [Formula 1b-01, (S)-3-[2-(2,4-Difluorophenyl)-2-hydroxy-3-[1,2,4]triazol-1-yl-propyl]-6-(n-hexyl)-thieno[2,3-d]pyrimidin-4(3H)-one]
– | – | – | – | – | – | – | 1 µg/mL | 0.03 µg/mL | 0.06 µg/mL | 0.06 µg/mL | 0.12 µg/mL | 0.03 µg/mL | 0.12 µg/mL | CCCCCc1cc2c(=O)n(C[C@](O)(Cn3cncn3)c3ccc(F)cc3F)cnc2s1 [Formula 1b-02, (S)-3-[2-(2,4-difluorophenyl)-2-hydroxy-3-(1H-1,2,4-triazol-1-yl)propyl]-6-n-pentylthieno[2,3-d]pyrimidin-4(3H)-one]
– | – | – | – | – | – | – | 1 µg/mL | 0.25 µg/mL | 0.25 µg/mL | 1 µg/mL | 0.5 µg/mL | 0.12 µg/mL | 0.5 µg/mL | CCCCCCCc1cc2c(=O)n(C[C@](O)(Cn3cncn3)c3ccc(F)cc3F)cnc2s1 [Formula 1b-03, (S)-3-[2-(2,4-Difluorophenyl)-2-hydroxy-3-[1,2,4]triazol-1-yl-propyl]-6-n-heptyl-thieno[2,3-d]pyrimidin-4(3H)-one]
